Assays:
Design in all cases: species or system human
[1] = Color retention after shampoo treatment, peptide as sealant with Basic Red 2 dye; conditions: 0.25 wt % Basic Red 2, peptide 0.25 wt %, 60 min contact, after 10 shampoo treatments; dye alone 29.70
Protocol: The peptides used in this Example were prepared as described in Examples 1 and 2. The color retention was quantified using a spectrophotometric measurement technique. A peptide given as SEQ ID NO:41 or SEQ ID NO:42 (38 mg), produced via fermentation as described in Examples 1 and 2, was added to 15 g of an aqueous 0.25 wt % solution of Basic Red 2 (Abbey Color, Philadelphia, Pa.) and the solution was allowed to stir for 1 h. A natural white hair tress (1 cm wide, potted, International Hair Importers & Products Inc., Bellerose, N.Y.) was inserted into a 15 mm×125 mm test tube and 13 mL of the peptide/dye mixture was injected into the test tube. The hair tress was immersed in contact with the colorant solution for 60 min and the colorant solution was agitated using a magnetic stirrer. The tress was removed, allowed to drip dry, and then air dried for 30 min. The hair tress was then subjected to a water rinse using copious amounts of deionized water, followed by a shampoo treatment with embrocation for 30 seconds. The shampoo treatment involved the application of Pantene Pro-V Sheer Volume shampoo (Proctor & Gamble, Cincinnati, Ohio) to the hair as follows. […] The color intensity after the shampoo was measured as described in Examples 4-7.

[2] = Color retention after shampoo treatment, peptide as sealant with Basic Violet 2 dye; conditions: for Delta E: 0.50 wt % Basic Violet 2, peptide 0.25 wt %, 30 min contact, after 10 shampoo treatments, dye alone 37.34; for hair color retention compared to the dye alone (in words): Basic Violet 2, by Delta E values, vs Comparative Example 13
Protocol: The peptides used in this Example were prepared as described in Examples 1 and 2. The color retention was quantified using a spectrophotometric measurement technique. A peptide given as SEQ ID NO:41 or SEQ ID NO:42 (38 mg), produced via fermentation as described in Examples 1 and 2, was added to 15 g of an aqueous 0.50 wt % solution of Basic Violet 2 (Abbey Color, Philadelphia, Pa.) and the solution was allowed to stir for 1 h. A natural white hair tress (1 cm wide, potted, International Hair Importers & Products Inc., Bellerose, N.Y.) was inserted into a 15 mm×125 mm test tube and 13 mL of the peptide/dye mixture was injected into the test tube. The hair tress was immersed in contact with the colorant solution for 30 min and the colorant solution was agitated using a magnetic stirrer. The tress was removed, allowed to drip dry, and then air dried for 30 min. The hair tress was then subjected to a water rinse using copious amounts of deionized water, followed by a shampoo treatment with embrocation for 30 seconds. The shampoo treatment involved the application of Pantene Pro-V Sheer Volume shampoo (Proctor & Gamble, Cincinnati, Ohio) to the hair as follows. A quarter-sized drop of the shampoo was distributed evenly over the hair tress and then was massaged aggressively into the hair for 30 sec, after which the hair tress was rinsed with water to remove the shampoo. The hair tress was then dried at room temperature. The shampooing step was repeated 9 more times to give a total of 10 shampoo treatments. The entire procedure described above was repeated without the addition of the hair-binding peptide to serve as a control. The color intensity after the shampoo was measured as described in Examples 4-7.

[3] = Co-application of multi-block peptide with semi-permanent dye (Arianor Ebony), color retention; conditions: difference in Delta E between peptide sample and peptide free control after 3 embrocation cycles (about 12 manual shampoos); pH 8.5-9.0; >2 benefit, >4 substantial benefit
Protocol: A 0.5% aqueous solution of Arianor Ebony (Sensient Technologies Corp, Milwaukee, Wis.) containing 3% benzyl alcohol and 0.05% diazolidinyl urea (biocide) was prepared. Dye insolubles were removed by filtration and the pH of the dye solution was adjusted to 8.50-9.0, using ethanolamine.
Approximately 1 mL of the dye solution was added to selected wells of a 24-well plate (Thomson Instrument Co., Oceanside, Calif.; part # 931565). A multi-block peptide (see Table 12) was dissolved in a solution consisting of 3 wt % benzyl alcohol and 95 wt % water to yield a peptide concentration of 2 wt % or approximately 20 mg/mL. The pH was adjusted to 8.5-9.0 using ethanolamine. The peptide solution was then pipetted into test wells containing dye solution in the amount of 1 mL or 0.2 mL respectively. The total volume in each test well was then adjusted to 2 mL where necessary using 3% aqueous benzyl alcohol (pH adjusted to 8.5-9.0 with ethanolamine). Peptide free controls consisted of 1 mL of dye solution diluted to 2 mL with the pH adjusted aqueous benzyl alcohol solution.
Baseline […] readings were made on one inch long tresses (see below) using an X-RITE® SP78™ Sphere Spectrophotometer (X-Rite, Inc., Grandville, Mich.), by placing the hair tress into the photosensor and calculating L*, a* and b* parameters representing the photometer response. All measurements were the average of three individual determinations.
The tresses (potted on one end with resin) of natural white, 85% gray or regular bleached hair (International Hair Importers and Products, Bellerose, N.Y.) were immersed in the peptide/dye solution and the entire well plate was agitated on a VORTEX-GENIE® 2 Mixer (Scientific Industries, Bohemia, N.Y.) at a speed setting of 1 for 30 minutes. The tresses were removed from the wells, rinsed for 30 seconds under flowing deionized water and then air dried.
The following complement of beads was then added to each well containing a hair tress: (8 beads in all; 4 Novagen Coli Rollers Plating Beads—sterilized (EMD Biosciences, San Diego, Calif.; Catalog No. 71013), 2 BioSpec 6.35 mm glass beads (BioSpec Products, Bartlesville, Okla.; Catalog No. 11079635), and 2 BioSpec 3.2 mm Stainless Steel Bead (Catalog No. 11079132ss).
Then 2.5 mL of aqueous 50% Pantene Pro V® shampoo (Proctor & Gamble Co., Cincinnati, Ohio) was pipetted into each well. The plate was placed on a VWR® VX-2500 Multi-tube Vortexer (VWR, West Chester, Pa.) for 5 minutes to simulate shampooing with embrocation. The hair tresses were then rinsed under flowing deionized water and air dried. This cycle was repeated two more times except that the length of time was 10 minutes for both subsequent embrocation cycles. (This treatment was previously determined to simulate approximately 12 manual shampoo cycles.) At the conclusion of the third embrocation cycle L*, a* and b* values were measured and Delta E values (ΔE) were calculated using equation 1 below:
where L*=the lightness variable and a* and b* are the chromaticity coordinates of CIELAB colorspace as defined by the International Commission of Illumination (CIE) (Minolta, Precise Color Communication—Color Control From Feeling to Instrumentation, Minolta Camera Co., 1996).
The Delta E value (ΔE) indicates color retention relative to the non-dyed hair and larger Delta E values indicate better performance. Values listed in the table represent the difference in Delta E values between the peptide-containing sample and the peptide free control. This difference is indicative of color retention after shampoo or water rinse treatments and positive values indicate better performance relative to the peptide free controls (Table 12).

Substance	Delta E [1]	Delta E [2]	hair color retention compared to the dye alone (in words) [2]	ΔE Retention Ebony Dye with 85% Gray Hair [3]
P-EQISGSLVAAPW-KRKRK-D (PEQISGSLVAAPWKRKRKD; Peptide having affinity for hair) [HC 74]	33.64	38.91	a small improvement in hair color retention	7.5
P-TPPELLHGAPRS-KRKRK-D (PTPPELLHGAPRSKRKRKD; Peptide having affinity for hair) [HC 71]	32.36	37.02	no improvement in hair color retention	2.9
